Measurements taken from patent publication US7803825B2, “Aminoalkylazole derivatives as histamine-3 antagonists” (Wyeth LLC, priority 2007, dated 2010).
Structures can show the parent of a compound that is named as a salt.

Molecular target: T1, histamine-3 (H3) receptor (Homo sapiens, UniProt Q9Y5N1)
T1 construct: expressed in transfected cells; host or cells: HEK293T
Experiment: Methyl Histamine Binding in Human Histamine-3 Receptor Cell Line
Settings: membranes of stably transfected HEK293T cells, radioligand 1 nM, Ki from IC50 by Cheng-Prusoff
Procedure: Evaluation of Methyl Histamine Binding in Human Histamine-3 Receptor Cell Line
The affinity of test compounds for the histamine-3 (H3) receptor is evaluated in the following manner. Stably transfected HEK293T cells are grown in DMEM containing 10% heat inactivated FBS and G-418 (500 ug/ml). Cells are scraped from the plate, transferred to centrifuge tubes, washed one time in PBS by centrifugation in a Sorvall RT7 Plus centrifuge (2000 rpm 10 minutes, 4° C.). The resulting pellets are stored at 80° C. until ready for use. Cells are re-suspended in buffer (50 mM Tris pH=7.5) and placed in a Dounce homogenizer, douncing ten times to homogenize cells. The homogenate is spun down by centrifugation (Sorvall RT7 Plus, 1800 rpm 10 minutes, 4° C.). The supernatant is placed in a Corex tube and spun down by centrifugation (Sorvall RC 5c Plus, 17,000 rpm 20 minutes, 4° C.). The pellet is resuspended in buffer (50 mM Tris, pH 7.5). Protein concentration (ug/ul) is determined using the Micro-BCA Protein Determination. The binding assay is set up in a 96 well microtiter plate in a total volume of 250 uL. Non-specific binding is determined in the presence of 10 uM clobenpropit. The final radioligand concentration is 1 nM. The test compound is serially diluted using the Beckman Biomek2000 to a final approximate range of 100 uM to 100 pM. Membranes are suspended in buffer, homogenized in 2 bursts of ten seconds using a Vitris mechanical homogenizer set at power setting 5. Ten μg of membranes are added to each well. Following a one hour incubation at 30° C., the reaction is terminated by the addition of ice cold buffer and rapid filtration with a Packard Filtermate Harvester through a GF/B filter pre-soaked with 1% PEI for one hour. The plate is dried for one hour at 37° C. and 60 μL Microscint Scintillant is added to each well. The CPM per well is measured on a Packard Top Count NXT. Ki values are determined in nM. The Ki is calculated from the IC50 (i.e. the concentration of competing ligand which displaces 50% of the specific binding of the radioligand). CPM values are expressed as % specific binding and plotted vs compound concentration. A curve is fitted using a four-parameter logistic fit and the IC50 value is determined. The Ki is calculated from this using the Cheng-Prusoff equation: […]=IC50/1+(L/Kd) where L=concentration of free radioligand used in the assay, and Kd is the dissociation constant of the radioligand for the receptor. L is determined for each experiment by counting an aliquot of the diluted radioligand (corresponding to that added to each well) and the Kd has previously been determined under identical conditions for this cell line/radioligand.

T1 sequence (Q9Y5N1 whole entry): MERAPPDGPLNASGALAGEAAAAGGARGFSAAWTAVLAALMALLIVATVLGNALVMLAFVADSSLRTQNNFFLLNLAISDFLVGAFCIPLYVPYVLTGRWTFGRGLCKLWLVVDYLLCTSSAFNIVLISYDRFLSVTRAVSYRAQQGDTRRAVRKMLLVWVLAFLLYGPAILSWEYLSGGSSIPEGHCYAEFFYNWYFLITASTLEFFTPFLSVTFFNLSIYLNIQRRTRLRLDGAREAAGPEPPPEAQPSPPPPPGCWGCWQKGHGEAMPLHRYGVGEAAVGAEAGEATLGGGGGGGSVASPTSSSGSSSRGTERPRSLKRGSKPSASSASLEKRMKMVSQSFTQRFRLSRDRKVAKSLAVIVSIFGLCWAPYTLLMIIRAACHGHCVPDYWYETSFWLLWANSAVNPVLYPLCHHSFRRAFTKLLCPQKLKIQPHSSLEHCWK

Question: For `Cn1c(Cc2ccc(-c3nc(CN4CCCC4)co3)cc2)nc2ccccc21` [Example 67, 1-Methyl-2-{4-[4-(pyrrolidin-1-ylmethyl)-1,3-oxazol-2-yl]benzyl}-1H-benzimidazole Fumarate], which Ki is on record?
Answer: ≤ 10 nM

Question: How did the Ki turn out when `c1ccc2c(c1)ncn2-c1ccc(-c2nc(CN3CCOCC3)co2)cc1` [Example 40] was run?
Answer: > 100 nM

Question: With `CC1(C)CC2CC(C)(CN2Cc2cnc(-c3ccc(Cn4cnc5ccccc54)cc3)o2)C1` (stereo not shown) [Example 110, 1-(4-{5-[(1,3,3-trimethyl-6-azabicyclo[3.2.1]oct-6-yl)methyl]-1,3-oxazol-2-yl}benzyl)-1H-benzimidazole] as the compound, how does the Ki read?
Answer: > 100 nM

Question: With `CC1CCCN(Cc2cnc(-c3ccc(Cn4cnc5ccccc54)cc3)o2)C1` (stereo not shown) [Example 109, 1-(4-{5-[(3-methylpiperidin-1-yl)methyl]-1,3-oxazol-2-yl}benzyl)-1H-benzimidazole] as the compound, how does the Ki read?
Answer: > 100 nM

Question: How did the Ki turn out when `C[C@@H]1CCCN1Cc1coc(-c2ccc(Cn3cnc4ccccc43)cc2)n1` [Example 19, 1-[4-(4-{[(2R)-2-methylpyrrolidin-1-yl]methyl}-1,3-oxazol-2-yl)benzyl]-1H-benzimidazole] was run?
Answer: ≤ 10 nM

Question: How did the Ki turn out when `CCN(C)Cc1cnc(-c2ccc(Cn3cnc4ccccc43)cc2)o1` [Example 112] was run?
Answer: > 100 nM

Question: `C[C@H]1CCCN1Cc1coc(-c2ccc(-c3nc4ccccc4n3CCC3CCCCC3)cc2)n1` [Example 61] was tested. Which Ki did it give?
Answer: 25.1 to 50 nM

Question: How did the Ki turn out when `c1ccc2c(c1)ccn2Cc1ccc(-c2nc(CN3CCCC3)co2)cc1` [Example 81, 1-{4-[4-(pyrrolidin-1-ylmethyl)-1,3-oxazol-2-yl]benzyl}-1H-indole Hydrochloride] was run?
Answer: 50.1 to 100 nM

Question: Which Ki does the source give for `c1ccc2c(c1)ncn2Cc1ccc(-c2nc(CN3CCOCC3)co2)cc1` [Example 10, 1-{4-[4-(morpholin-4-ylmethyl)-1,3-oxazol-2-yl]benzyl}-1H-benzimidazole] here?
Answer: > 100 nM

Question: Which Ki does the source give for `c1ccc2c(c1)ncn2Cc1ccc(-c2nc(CN3CCCC3)co2)cc1` [Example 6B, 1-{4-[4-(Pyrrolidin-1-ylmethyl)-1,3-oxazol-2-yl]benzyl}-1H-benzimidazole Hydrochloride] here?
Answer: ≤ 10 nM

Question: Which Ki does the source give for `CC1CCCCN1Cc1coc(-c2ccc(-n3cnc4ccccc43)cc2)n1` (stereo not shown) [Example 45, 1-(4-{4-[(2-methylpiperidin-1-yl)methyl]-1,3-oxazol-2-yl}phenyl)-1H-benzimidazole] here?
Answer: ≤ 10 nM

Question: For `c1ccc2c(c1)nc(-c1ccc(-c3nc(CN4CCCC4)co3)cc1)n2CC1CCC1` [Example 58, 1-(cyclobutylmethyl)-2-{4-[4-(pyrrolidin-1-ylmethyl)-1,3-oxazol-2-yl]phenyl}-1H-benzimidazole], which Ki is on record?
Answer: 10.1 to 25 nM

Question: For `C[C@@H]1CCCN1Cc1coc(-c2ccc(Cn3ncc4cc(F)ccc43)cc2)n1` [Example 95, 5-fluoro-1-[4-(4-{[(2R)-2-methylpyrrolidin-1-yl]methyl}-1,3-oxazol-2-yl)benzyl]-1H-indazole], which Ki is on record?
Answer: 50.1 to 100 nM

Question: How did the Ki turn out when `c1ccc2c(c1)ncn2Cc1ccc(-c2ncc(CN3CCCCC3)o2)cc1` [Example 107, 1-{4-[5-(piperidin-1-ylmethyl)-1,3-oxazol-2-yl]benzyl}-1H-benzimidazole] was run?
Answer: > 100 nM

Question: For `Cn1c(-c2ccc(-c3nc(CN4CCCCC4)co3)cc2)nc2ccccc21` [Example 52, 1-methyl-2-{4-[4-(piperidin-1-ylmethyl)-1,3-oxazol-2-yl]phenyl}-1H-benzimidazole], which Ki is on record?
Answer: ≤ 10 nM

Question: How did the Ki turn out when `C[C@H]1CCCN1Cc1coc(-c2ccc(Cn3c(-c4ccccc4)nc4ccccc43)cc2)n1` [Example 117, 1-[4-(4-{[(2S)-2-methylpyrrolidin-1-yl]methyl}-1,3-oxazol-2-yl)benzyl]-2-phenyl-1H-benzimidazole] was run?
Answer: ≤ 10 nM

Question: How did the Ki turn out when `CC1CCN(Cc2coc(-c3ccc(-n4cnc5ccccc54)cc3)n2)CC1` [Example 47, 1-(4-{4-[(4-methylpiperidin-1-yl)methyl]-1,3-oxazol-2-yl}phenyl)-1H-benzimidazole] was run?
Answer: ≤ 10 nM

Question: `FC(F)(F)c1nc2ccccc2n1Cc1ccc(-c2nc(CN3CCCCC3)co2)cc1` [Example 122, 1-{4-[4-(piperidin-1-ylmethyl)-1,3-oxazol-2-yl]benzyl}-2-(trifluoromethyl)-1H-benzimidazole] was tested. Which Ki did it give?
Answer: 10.1 to 25 nM

Question: `c1ccc(-c2nc3ccccc3n2Cc2ccc(-c3nc(CN4CCCC4)co3)cc2)cc1` [Example 115, 2-phenyl-1-{4-[4-(pyrrolidin-1-ylmethyl)-1,3-oxazol-2-yl]benzyl}-1H-benzimidazole] was tested. Which Ki did it give?
Answer: ≤ 10 nM

Question: For `CC1CCCN1Cc1cnc(-c2ccc(Cn3cnc4ccccc43)cc2)o1` (stereo not shown) [Example 105, 1-(4-{5-[(2-methylpyrrolidin-1-yl)methyl]-1,3-oxazol-2-yl}benzyl)-1H-benzimidazole], which Ki is on record?
Answer: ≤ 10 nM

Question: With `C[C@H]1CCCN1Cc1coc(-c2ccc(-c3nc4ccccc4n3CC3CCC3)cc2)n1` [Example 59, 1-(cyclobutylmethyl)-2-[4-(4-{[(2S)-2-methylpyrrolidin-1-yl]methyl}-1,3-oxazol-2-yl)phenyl]-1H-benzimidazole] as the compound, how does the Ki read?
Answer: ≤ 10 nM

Question: Which Ki does the source give for `CCN(C)Cc1coc(-c2ccc(-c3nc4ccccc4n3C)cc2)n1` [Example 53, N-methyl-N-({2-[4-(1-methyl-1H-benzimidazol-2-yl)phenyl]-1,3-oxazol-4-yl}methyl)ethanamine] here?
Answer: ≤ 10 nM

Question: `c1ccc2c(c1)ncn2-c1ccc(-c2nc(CN3CCCC3)co2)cc1` [Example 36, 1-{4-[4-(pyrrolidin-1-ylmethyl)-1,3-oxazol-2-yl]phenyl}-1H-benzimidazole] was tested. Which Ki did it give?
Answer: ≤ 10 nM

Question: Which Ki does the source give for `Cn1c(CN2CCCC2)cnc1-c1ccc(C#N)cc1` [Example 144, 4-(1-Methyl-5-pyrrolidin-1-ylmethyl-1H-imidazol-2-yl)-benzonitrile fumarate salt] here?
Answer: > 100 nM

Question: `CN(C)Cc1coc(-c2ccc(-c3nc4ccccc4n3C)cc2)n1` [Example 54, N,N-dimethyl-1-{2-[4-(1-methyl-1H-benzimidazol-2-yl)phenyl]-1,3-oxazol-4-yl}methanamine] was tested. Which Ki did it give?
Answer: 10.1 to 25 nM

Question: Which Ki does the source give for `C[C@H]1CCCN1Cc1cnc(-c2ccc(Cn3cnc4ccccc43)cc2)o1` [Example 106, 1-[4-(5-{[(2S)-2-methylpyrrolidin-1-yl]methyl}-1,3-oxazol-2-yl)benzyl]-1H-benzimidazole] here?
Answer: ≤ 10 nM

Question: How did the Ki turn out when `C[C@H]1CCCN1Cc1coc(-c2ccc(Cn3cnc4ccccc43)cc2)n1` [Example 20, 1-[4-(4-{[(2S)-2-methylpyrrolidin-1-yl]methyl}-1,3-oxazol-2-yl)benzyl]-1H-benzimidazole] was run?
Answer: ≤ 10 nM

Question: For `Fc1ccc2cnn(Cc3ccc(-c4nc(CN5CCCC5)co4)cc3)c2c1` [Example 101, 6-fluoro-1-{4-[4-(pyrrolidin-1-ylmethyl)-1,3-oxazol-2-yl]benzyl}-1H-indazole], which Ki is on record?
Answer: 25.1 to 50 nM

Question: Which Ki does the source give for `c1ccc2c(c1)ncn2Cc1ccc(-c2nc(CN3CCCCCC3)cs2)cc1` [Example 74, 1-{4-[4-(azepan-1-ylmethyl)-1,3-thiazol-2-yl]benzyl}-1H-benzimidazole] here?
Answer: ≤ 10 nM

Question: For `c1ccc2c(c1)ncn2Cc1ccc(-c2ncc(CN3CCCCCC3)o2)cc1` [Example 111, 1-{4-[5-(azepan-1-ylmethyl)-1,3-oxazol-2-yl]benzyl}-1H-benzimidazole], which Ki is on record?
Answer: > 100 nM

Question: With `FC(F)(F)c1nc2ccccc2n1Cc1ccc(-c2nc(CN3CCCC3)co2)cc1` [Example 114] as the compound, how does the Ki read?
Answer: ≤ 10 nM

Question: `CN(C)Cc1coc(-c2ccc(-n3cnc4ccccc43)cc2)n1` [Example 38] was tested. Which Ki did it give?
Answer: 10.1 to 25 nM

Question: `C[C@H]1CCCN1Cc1coc(-c2ccc(Cn3ncc4cc(F)ccc43)cc2)n1` [Example 98, 5-fluoro-1-[4-(4-{[(2S)-2-methylpyrrolidin-1-yl]methyl}-1,3-oxazol-2-yl)benzyl]-1H-indazole] was tested. Which Ki did it give?
Answer: ≤ 10 nM

Question: With `OC[C@@H]1CCCN1Cc1coc(-c2ccc(Cn3cnc4ccccc43)cc2)n1` [Example 18, [(2S)-1-({2-[4-(1H-benzimidazol-1-ylmethyl)phenyl]-1,3-oxazol-4-yl}methyl)pyrrolidin-2-yl]methanol] as the compound, how does the Ki read?
Answer: 10.1 to 25 nM

Question: How did the Ki turn out when `c1ccc2c(c1)nc(-c1ccc(-c3nc(CN4CCCC4)co3)cc1)n2CCC1CCCCC1` [Example 60, 1-(2-cyclohexylethyl)-2-{4-[4-(pyrrolidin-1-ylmethyl)-1,3-oxazol-2-yl]phenyl}-1H-benzimidazole] was run?
Answer: 50.1 to 100 nM

Question: For `OC[C@@H]1CCCN1Cc1coc(-c2ccc(-n3cnc4ccccc43)cc2)n1` [Example 48, [(2S)-1-({2-[4-(1H-benzimidazol-1-yl)phenyl]-1,3-oxazol-4-yl}methyl)pyrrolidin-2-yl]methanol], which Ki is on record?
Answer: ≤ 10 nM

Question: For `c1ccc2c(c1)ncn2-c1ccc(-c2nc(CN3CCCCC3)co2)cc1` [Example 37], which Ki is on record?
Answer: ≤ 10 nM
